Measurements from patent US20130123298A1, “PHARMACEUTICAL COMPOSITION FOR THE PREVENTION OF PERIOPERATIVE ARTERIAL HYPOTENSION IN HUMANS” (LABORATOIRE AGUETTANT, priority 2010, published 2013).

System: adult patients under general anesthetic in noncardiac surgery
Format: in vivo, human
Experimental: The study covered 1,534 patients having received perioperative hemodynamic optimization with use of noradrenaline (in the form of noradrenaline tartrate) to maintain blood pressure under general anesthetic in noncardiac surgery in adults.
The hemodynamic surveillance is performed non-invasively as blood pressure is taken automatically every 2 minutes when inducing anesthesia, then every 5 minutes during the hemodynamic stability period.
Administration of noradrenaline in continuous perfusion with the solution titered at 10 μg/mL.
This solution is injected: • firstly as a continuous perfusion, in an automatic syringe pump, whose speed will be modulated as a function of the weight, age, and initial “blood pressure state” of the patient (notion of treated or untreated hypertension), of the presence or absence of epidural anesthesia combined with general anesthesia. • secondly as an isolated perfusion to prevent causing a bolus of NA during the injection of another drug in the perfusion tubing. This isolated perfusion is branched either on an extra venous catheter independent of the venous access used for the anesthetic, or on a multi-lumen catheter of a central venous path, or on a three-way tap located between the peripheral venous catheter and the end of the perfusion tubing.
The recommended dosages are 0.02 to 0.08 μg/kg/min of noradrenaline.
The suitable dosage is that which delivers blood pressure similar, within a limit of 20% of the preoperative blood pressure of the patient, and systolic blood pressure >100 mmHg
For general anesthetic, noradrenaline administration by continuous perfusion with the solution titered at 10 μg/mL must be started 3 to 4 minutes before inducing anesthesia to prevent hypotension caused by the anesthetic.
The patient is weaned off noradrenaline during the emergence phase by progressively reducing noradrenaline administration dosages as a function of how well the patient is returning to the preoperative blood pressure.
The study covered 1,534 patients 15 to 102 years old (average age 56 years old), with average weight 72 kg (extremes from 33 to 163 kg), mean preoperative blood pressure 138 mmHg (from 95 to 200 mmHg).
The induction procedure for general anesthetic is the same for all the patients: the patients receive 0.2 μg/kg of sufentanil, after 3 minutes 1.5 to 3 mg/kg propofol, then 0.15 mg/kg of cisatracurium.
The patients are intubated 3 minutes after the curare injection and ventilated with 8 mL/kg of theoretical weight.
Anesthesia is maintained using sevoflurane. The perioperative analgesia is handled by continuous injection of remifentanil and/or by iterative injection of sufentanil.
A continuous perfusion of noradrenaline in solution at 10 μg/mL of noradrenaline is administered 4 minutes before inducing anesthesia.
The dosages used are generally comprised between 0.02 and 0.08 μg/kg/min.
The patient is weaned off the continuous perfusion of the noradrenaline solution at 10 μg/mL in the emergence phase by progressively reducing the noradrenaline administration dosages as a function of how well the patient is returning to the preoperative blood pressure.
Clinically: non-invasive blood pressure surveillance is performed every 2 minutes when inducing anesthesia, then every 5 minutes during the hemodynamic stability period.
The quality of the perioperative hemostasis was always noted.
The following elements are systematically monitored and noted in the first 24 hours postoperative: agitation when waking, postoperative nausea and/or vomiting (PONY).
Biologically: troponin was assayed at D1 in 26.0% of patients judged to be at risk: 99.87% were at zero, one patient has a troponine assay at 0.04 and one patient at 0.05 μg/mL (significance threshold is 0.4 μg/mL). These patients were controlled again and their level had normalized at D2.
Urea and creatinine assay on D0 and D1 performed on 26.0% of the patients judged to be at higher risk. […]

[1] = general anesthetic combined with epidural anesthetic

cases of superficial venous thromboses detected (human, in vivo): five | hypertension needing nicardipine 1 mg bolus as last resort (human, in vivo): 26 cases | other undesirable effects (human, in vivo): No other undesirable effect | patients with troponin at zero (human, in vivo): 99.87% | perioperative urine flows (human, in vivo): net increase | postoperative vomiting (human, in vivo): none of the patients | renal function (urea and creatinine assay) (human, in vivo): no changes to renal function | postoperative nausea (human, in vivo, 24 h): 1.2% | distal peripheral venous thrombosis complications (human, in vivo, 4 day): 0.32%
Compound: NC[C@H](O)c1ccc(O)c(O)c1 [noradrenaline, 4-[(1R)-2-amino-1-hydroxyethyl]benzene-1,2-diol]
effect on blood pressure (continuous injection): immediate, brief, but without tachyphylaxis, long-lasting in continuous injection, rapidly reversible | perioperative blood pressure control (five elderly patients with aortal stenosis and hip fracture, general anesthesia): controlled perioperative blood pressure during general anesthesia without cardiac incidents | duration of blood pressure control [1]: up to 400 min | tachyphylaxis and vascular filling during prolonged blood pressure control [1]: without tachyphylaxis and without excess vascular filling | blood pressure control (hemodialyzed patients with renal failure, 0.05 to 0.08 μg/kg/min): blood pressure could be controlled | urea and creatinine postoperative value (human, in vivo): reduction of their postoperative value at D1 | lucidity at emergence and absence of agitation (independent of duration of intervention and patient age): noted in all patients | health risk and surgical outcomes (patients over 80 years old (8.5%)): the health risk was controlled and surgical outcomes were simple | quality of emergence (young patients without history, 0.02 μg/kg/h): better lucidity and quasi-disappearance of postoperative nausea and vomiting
